In PubChem BioAssay (NCI):
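Following 48 hours of exposure in 96-well plates, responses at five concentrations were used to interpolate endpoints linearly. GI50: concentration for 50% inhibition of growth. Definition used: TGI = concentration required for complete inhibition of growth.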

Legend:
Assay in all cases: NCI tumour cell line growth inhibition, 48 h
[1] = tested on: HS 578T breast
[2] = tested on: HOP-62 NSCLC
[3] = tested on: OVCAR-4 ovarian
[4] = tested on: NCI-H226 lung
[5] = tested on: SK-MEL-28 melanoma
[6] = tested on: K-562 leukemia
[7] = tested on: SW-620 colon
[8] = tested on: NCI/ADR-RES ovarian
[9] = tested on: OVCAR-3 ovarian
[10] = tested on: SNB-19 CNS
[11] = tested on: MCF7 breast
[12] = tested on: MDA-MB-231 breast
[13] = tested on: UACC-62 melanoma
[14] = tested on: SN12C renal
[15] = tested on: M14 melanoma
[16] = tested on: SK-OV-3 ovarian
[17] = tested on: ACHN renal
[18] = tested on: BT-549 breast
[19] = tested on: COLO 205 colon
[20] = tested on: SF-268 CNS
[21] = tested on: SNB-75 CNS
[22] = tested on: HCC-2998 colon
[23] = tested on: DU-145 prostate
[24] = tested on: HL-60(TB) leukemia
[25] = tested on: HCT-15 colon
[26] = tested on: NCI-H460 lung
[27] = tested on: T-47D breast
[28] = tested on: MALME-3M melanoma
[29] = tested on: HCT-116 colon
[30] = tested on: CAKI-1 renal
[31] = tested on: RXF 393 renal
[32] = tested on: PC-3 prostate
[33] = tested on: SR leukemia
[34] = tested on: A498 renal
[35] = tested on: SF-295 CNS
[36] = tested on: SK-MEL-5 melanoma
[37] = tested on: TK-10 renal
[38] = tested on: HT29 colon
[39] = tested on: SF-539 CNS
[40] = tested on: NCI-H522 lung
[41] = tested on: UACC-257 melanoma
[42] = tested on: 786-0 renal
[43] = tested on: UO-31 renal
[44] = tested on: RPMI-8226 leukemia
[45] = tested on: OVCAR-8 ovarian
[46] = tested on: KM12 colon
[47] = tested on: SK-MEL-2 melanoma
[48] = tested on: HOP-92 NSCLC
[49] = tested on: U251 CNS
[50] = tested on: CCRF-CEM leukemia
[51] = tested on: EKVX NSCLC
[52] = tested on: IGROV1 ovarian
[53] = tested on: A549 NSCLC
[54] = tested on: LOX IMVI melanoma
[55] = tested on: OVCAR-5 ovarian
[56] = tested on: NCI-H23 lung
[57] = tested on: MDA-MB-435
[58] = tested on: MOLT-4 leukemia

In the case of `Cc1c(C#N)c2nnn(-c3cccc(Cl)c3)c(=O)n2c1-c1ccccc1`, the TGI [1] is reported as > 100000 nM, the TGI [2] is reported as 7810 nM and the TGI [3] is reported as > 100000 nM. For the same molecule, the TGI [4] was 12600 nM, the TGI [5] was > 100000 nM and the TGI [6] was 4030 nM. For the same molecule, the TGI [7] was > 100000 nM, the TGI [8] was > 100000 nM and the TGI [9] was 5590 nM. For the same molecule, the TGI [10] was > 100000 nM, the TGI [11] was 35400 nM and the TGI [12] was 6100 nM. The TGI [13] was 36000 nM, the TGI [14] was 62000 nM and the TGI [15] was > 100000 nM. For the same molecule, the TGI [16] was > 100000 nM, the TGI [17] was > 100000 nM and the TGI [18] was > 100000 nM. For the same molecule, the TGI [19] was 2350 nM, the TGI [20] was > 100000 nM and the TGI [21] was 7760 nM. The TGI [22] was 18200 nM, the TGI [23] was 40400 nM and the TGI [24] was > 100000 nM. For the same molecule, the TGI [25] was > 100000 nM, the TGI [26] was > 100000 nM and the TGI [27] was 53900 nM. For the same molecule, the TGI [28] was > 100000 nM, the TGI [29] was 38200 nM and the TGI [30] was > 100000 nM. The TGI [31] was 5840 nM, the TGI [32] was 9910 nM and the TGI [33] was 2690 nM. For the same molecule, the TGI [34] was 13000 nM, the TGI [35] was 4980 nM and the TGI [36] was 19200 nM. For the same molecule, the TGI [37] was > 100000 nM, the TGI [38] was 9180 nM and the TGI [39] was 10400 nM. For the same molecule, the TGI [40] was 8590 nM, the TGI [41] was > 100000 nM and the TGI [42] was > 100000 nM. For the same molecule, the TGI [43] was > 100000 nM, the TGI [44] was 2610 nM and the TGI [45] was > 100000 nM. The TGI [46] was 14900 nM, the TGI [47] was 8950 nM and the TGI [48] was > 100000 nM. For the same molecule, the TGI [49] was 11100 nM, the TGI [50] was > 100000 nM and the TGI [51] was > 100000 nM. For the same molecule, the TGI [52] was > 100000 nM, the TGI [53] was > 100000 nM and the TGI [54] was > 100000 nM. For the same molecule, the TGI [55] was > 100000 nM and the TGI [56] was > 100000 nM.

`[Br][Pb]([c]1ccccc1)([c]1ccccc1)[c]1ccccc1` gave a GI50 [2] of 218 nM, a TGI [2] of 505 nM and a GI50 [4] of 173 nM. The TGI [4] was 381 nM, the GI50 [5] was 175 nM and the TGI [5] was 342 nM. The GI50 [6] was 139 nM, the GI50 [7] was 163 nM and the TGI [7] was 300 nM. For the same molecule, the GI50 [8] was 229 nM, the TGI [8] was 561 nM and the GI50 [9] was 139 nM. The TGI [9] was 272 nM, the GI50 [10] was 221 nM and the TGI [10] was 527 nM. It also gave a GI50 [11] of 159 nM, a TGI [11] of 303 nM and a GI50 [12] of 208 nM. It also gave a TGI [12] of 514 nM, a GI50 [13] of 186 nM and a TGI [13] of 428 nM. It also gave a GI50 [14] of 228 nM, a TGI [14] of 677 nM and a GI50 [15] of 195 nM. The TGI [15] was 409 nM, the GI50 [16] was 401 nM and the TGI [16] was 1510 nM. It also gave a GI50 [17] of 175 nM, a TGI [17] of 328 nM and a GI50 [18] of 198 nM. The TGI [18] was 541 nM, the GI50 [19] was 177 nM and the TGI [19] was 356 nM. The GI50 [20] was 171 nM, the TGI [20] was 350 nM and the GI50 [21] was 99.3 nM. It also gave a TGI [21] of 389 nM, a GI50 [22] of 191 nM and a TGI [22] of 412 nM. For the same molecule, the GI50 [23] was 182 nM, the TGI [23] was 370 nM and the GI50 [24] was 190 nM. For the same molecule, the TGI [24] was 498 nM, the GI50 [25] was 148 nM and the TGI [25] was 329 nM. The GI50 [26] was 292 nM, the TGI [26] was 895 nM and the GI50 [57] was 190 nM. The TGI [57] was 435 nM, the GI50 [27] was 143 nM and the TGI [27] was 318 nM. It also gave a GI50 [28] of 183 nM, a TGI [28] of 390 nM and a GI50 [29] of 176 nM. For the same molecule, the TGI [29] was 352 nM, the GI50 [30] was 200 nM and the TGI [30] was 454 nM. For the same molecule, the GI50 [31] was 91.6 nM, the TGI [31] was 231 nM and the GI50 [32] was 225 nM. For the same molecule, the TGI [32] was 515 nM, the GI50 [33] was 103 nM and the TGI [33] was > 100000 nM. For the same molecule, the GI50 [34] was 177 nM, the TGI [34] was 400 nM and the GI50 [36] was 164 nM. The TGI [36] was 312 nM, the GI50 [58] was 220 nM and the GI50 [37] was 175 nM. For the same molecule, the TGI [37] was 360 nM, the GI50 [38] was 239 nM and the TGI [38] was 508 nM. The GI50 [39] was 252 nM, the TGI [39] was 596 nM and the GI50 [40] was 158 nM. The TGI [40] was 352 nM, the GI50 [41] was 193 nM and the TGI [41] was 430 nM. It also gave a GI50 [42] of 153 nM, a TGI [42] of 309 nM and a GI50 [43] of 141 nM. The TGI [43] was 279 nM, the GI50 [44] was 179 nM and the TGI [44] was 681 nM. It also gave a GI50 [45] of 186 nM, a TGI [45] of 384 nM and a GI50 [46] of 356 nM. For the same molecule, the TGI [46] was 1210 nM, the GI50 [47] was 218 nM and the TGI [47] was 539 nM. The GI50 [49] was 169 nM, the TGI [49] was 309 nM and the GI50 [50] was 202 nM. For the same molecule, the TGI [50] was > 100000 nM, the GI50 [51] was 183 nM and the TGI [51] was 439 nM. It also gave a GI50 [53] of 356 nM, a TGI [53] of 1290 nM and a GI50 [54] of 132 nM. For the same molecule, the TGI [54] was 299 nM, the GI50 [55] was 289 nM and the TGI [55] was 1220 nM. It also gave a GI50 [56] of 174 nM and a TGI [56] of 418 nM.
